Tests used:
[1] = test system: RAW264.7; assay: Antiinflammatory activity in mouse RAW264.7 cells assessed as inhibition of LPS-stimulated NO production at 20 uM by ELISA relative to control; assay type: functional
[2] = Cytotoxicity against LPS-stimulated mouse RAW264.7 cells assessed as cell viability at 20 uM by MTT assay (reference value: 100.01 +/- 0.05 %); assay type: cell-based; conditions: LPS-stimulated RAW264.7 cells, read-out: Activity
[3] = test system: RAW264.7; assay: Antiinflammatory activity in mouse RAW264.7 cells assessed as inhibition of LPS-stimulated PGE2 production by ELISA; assay type: functional, cell-based
[4] = test system: RAW264.7; assay: Antiinflammatory activity in mouse RAW264.7 cells assessed as inhibition of LPS-stimulated NO production at 10 uM by ELISA relative to control; assay type: functional
[5] = test system: RAW264.7; assay: Antiinflammatory activity in mouse RAW264.7 cells assessed as inhibition of LPS-stimulated NO production by ELISA; assay type: functional, cell-based
[6] = test system: RAW264.7; assay: Cytotoxicity against mouse RAW264.7 cells by MTT assay; assay type: cell-based
[7] = Cytotoxicity against LPS-stimulated mouse RAW264.7 cells assessed as cell viability at 10 uM by MTT assay (reference value: 100.01 +/- 0.05 %); assay type: cell-based; conditions: LPS-stimulated RAW264.7 cells, read-out: Activity
[8] = test system: RAW264.7; assay: Antiinflammatory activity in mouse RAW264.7 cells assessed as inhibition of LPS-stimulated NO production at 5 uM by ELISA relative to control; assay type: functional
[9] = Cytotoxicity against LPS-stimulated mouse RAW264.7 cells assessed as cell viability at 5 uM by MTT assay (reference value: 100.01 +/- 0.05 %); assay type: cell-based; conditions: LPS-stimulated RAW264.7 cells, read-out: Activity

## COc1ccc(-c2cc(=O)c3ccccc3o2)c(OC)c1
[1]
  inhibition at 20 µM: 20.9%
[2]
  viability at 20 µM: 107%

## O=c1cc(-c2ccc(F)cc2)oc2ccccc12
[1]
  inhibition at 20 µM: 21.2%
[2]
  viability at 20 µM: 92.4%

## CS(=O)(=O)Nc1ccc([N+](=O)[O-])cc1OC1CCCCC1 [NS-398]
[3]
  IC50: 6.74 µM

## O=c1cc(-c2ccccc2)oc2ccc(F)cc12
[1]
  inhibition at 20 µM: 20.4%
[2]
  viability at 20 µM: 75.2%

## COc1cccc(-c2cc(=O)c3ccccc3o2)c1
[1]
  inhibition at 20 µM: 15.7%
[2]
  viability at 20 µM: 102%

## CC(C)(C)C(=O)Oc1ccc2c(=O)cc(-c3ccccc3)oc2c1
[1]
  inhibition at 20 µM: 28.6%
[2]
  viability at 20 µM: 102%

## O=c1cc(-c2ccc(O)c(O)c2)oc2ccccc12
[4]
  inhibition at 10 µM: 64.3%
[3]
  IC50: 0.99 µM
[5]
  IC50: 6.29 µM
[6]
  IC50: 45.1 µM
[7]
  viability at 10 µM: 93.6%

## O=c1cc(-c2ccc(Cl)cc2)oc2ccccc12
[1]
  inhibition at 20 µM: 5.07%
[2]
  viability at 20 µM: 85.8%

## CC(C)Cc1ccc(C(C)C(=O)O)cc1 (centres undefined) [IBUPROFEN]
[3]
  IC50: 0.39 µM
[5]
  IC50: 1480 µM
[6]
  IC50: 3310 µM

## O=c1cc(-c2cccc(O)c2)oc2ccccc12
[1]
  inhibition at 20 µM: 17.7%
[2]
  viability at 20 µM: 97%

## COc1cc(OC)c2c(=O)cc(-c3ccc(OC)c(OC)c3)oc2c1 [TETRAMETHYLLUTEOLIN]
[1]
  inhibition at 20 µM: 37.6%
[3]
  IC50: 3.13 µM
[2]
  viability at 20 µM: 109%
[5]
  IC50: 32.5 µM
[6]
  IC50: 73.9 µM

## O=c1cc(-c2ccc(O)cc2)oc2ccccc12
[1]
  inhibition at 20 µM: 37.5%
[3]
  IC50: 3.77 µM
[2]
  viability at 20 µM: 96.1%
[5]
  IC50: 48.3 µM
[6]
  IC50: 145 µM

## O=c1cc(-c2ccccc2)oc2ccc(Cl)cc12 [6-CHLOROFLAVONE]
[1]
  inhibition at 20 µM: 26.1%
[2]
  viability at 20 µM: 91.4%

## COc1ccc(-c2cc(=O)c3ccccc3o2)cc1 [4'-METHOXYFLAVONE]
[1]
  inhibition at 20 µM: 8.76%
[2]
  viability at 20 µM: 111%

## O=c1cc(-c2ccc(C(F)(F)F)cc2)oc2ccccc12
[1]
  inhibition at 20 µM: 10.7%
[2]
  viability at 20 µM: 87.9%

## C[Si](C)(C)c1ccc(-c2cc(=O)c3ccccc3o2)cc1
[1]
  inhibition at 20 µM: 18%
[2]
  viability at 20 µM: 95%

## O=c1cc(-c2ccccc2)oc2ccc([N+](=O)[O-])cc12
[1]
  inhibition at 20 µM: 11.9%
[2]
  viability at 20 µM: 90.8%

## O=c1cc(-c2ccc(-c3ccccc3)cc2)oc2ccccc12
[1]
  inhibition at 20 µM: 4.45%
[2]
  viability at 20 µM: 92.3%

## O=c1cc(-c2ccc(O)c(O)c2)oc2cc(O)cc(O)c12 [LUTEOLIN]
[3]
  IC50: 2.87 µM
[5]
  IC50: 5.06 µM
[6]
  IC50: 18.9 µM
[8]
  inhibition at 5 µM: 19.5%
[9]
  viability at 5 µM: 98%

## O=c1cc(-c2ccccc2)oc2cc3c(cc12)OCO3
[1]
  inhibition at 20 µM: 20.9%
[2]
  viability at 20 µM: 119%

## CC(C)(C)c1ccc(-c2cc(=O)c3ccccc3o2)cc1
[1]
  inhibition at 20 µM: 19.5%
[2]
  viability at 20 µM: 99.1%

## O=c1cc(-c2ccc(-c3cccc4ccccc34)cc2)oc2ccccc12
[1]
  inhibition at 20 µM: 11.6%
[2]
  viability at 20 µM: 99.8%

## Cc1ccc2oc(-c3ccccc3)cc(=O)c2c1 [6-METHYLFLAVONE]
[1]
  inhibition at 20 µM: 17.4%
[2]
  viability at 20 µM: 116%

## O=c1cc(-c2ccccc2)oc2ccccc12 [FLAVONE]
[1]
  inhibition at 20 µM: 16.3%
[2]
  viability at 20 µM: 95.4%

## COc1ccc2c(=O)cc(-c3ccccc3)oc2c1 [7-METHOXYFLAVONE]
[1]
  inhibition at 20 µM: 17.7%
[2]
  viability at 20 µM: 133%

## COc1cc(OC)c2c(=O)cc(-c3ccccc3)oc2c1 [CHRYSIN DIMETHYL ETHER]
[1]
  inhibition at 20 µM: 31.5%
[3]
  IC50: 7.43 µM
[2]
  viability at 20 µM: 134%
[5]
  IC50: 33.2 µM
[6]
  IC50: 65.6 µM

## COc1ccc(-c2cc(=O)c3ccccc3o2)cc1OC [3',4'-DIMETHOXYFLAVONE]
[1]
  inhibition at 20 µM: 33.3%
[3]
  IC50: 6.46 µM
[2]
  viability at 20 µM: 117%
[5]
  IC50: 34.5 µM
[6]
  IC50: 39.7 µM

## COc1ccc(-c2cc(=O)c3c(OC)cc(OC)cc3o2)cc1 [TRIMETHYLAPIGENIN]
[1]
  inhibition at 20 µM: 27.2%
[2]
  viability at 20 µM: 103%

## COc1cc(OC)c2c(=O)cc(-c3ccc(O)c(O)c3)oc2c1
[3]
  IC50: 14 µM
[5]
  IC50: 34.8 µM
[6]
  IC50: > 200 µM

## COc1ccc2oc(-c3ccccc3)cc(=O)c2c1 [6-METHOXYFLAVONE]
[1]
  inhibition at 20 µM: 22.2%
[2]
  viability at 20 µM: 116%

— ChEMBL document CHEMBL4028822, “Identification and structure activity relationship of novel flavone derivatives that inhibit the production of nitric oxide and PGE2 in LPS-induced RAW 264.7 cells” (Bioorg Med Chem Lett, 2017)
